Experimental data published in patent US10604512B2, “3-(1H-indol-2-yl)-1H-indazoles and therapeutic uses thereof” (Samumed, LLC, priority 2015, dated 2020).

Legend:
Format in all cases: cell-based
[1] = system: Wnt activity (Sp5-Luc reporter, TCF/LEF binding sites) in SW480 colon carcinoma cells; assay: Screening assay for Wnt activity: Sp5-Luc reporter gene assay in stably transduced SW480 colon carcinoma cells; conditions: Homo sapiens, overnight incubation, 10-point curve from 10 μM
In short: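 SW480 cells stably transduced with a luciferase reporter driven by an Sp5 promoter of eight TCF/LEF sites were plated at 4,000 cells/well in 1% FBS medium. They were exposed overnight at 37° C to a 10-point 1:3 dilution series from 10 μM (0.1% DMSO). Luminescence was normalized to DMSO for four-parameter EC50, or percent inhibition at 10 μM.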

SW480 colon cancer cells = assay: Cell viability assay (CellTiter-Blue) in SW480 colon cancer cells; conditions: Homo sapiens, 96 h, four days, CellTiter-Blue
In short: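 SW480 cells (~2×10^3 per well) were exposed to compound for four days at 37 °C/5% CO2, using 8-point 1:3 dilutions from 10 μM to 0.0045 μM in duplicate. Viability was read by resazurin reduction (CellTiter-Blue, ~3 h, Ex 560/Em 590 nm). EC50 came from non-linear regression; above 10 μM, percent inhibition at 10 μM is given.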

IL-6 = assay: Inhibition of IL-6 in LPS-stimulated THP-1 human monocyte cells (HTRF); conditions: IL-6 inhibition, LPS-stimulated THP-1 cells, HTRF
In short: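 THP-1 cells serum-reduced (1% FBS, 24 h), then 5000 cells/well preincubated 2 h with compound (10-point 1:3 series from 10 μM, 0.1% DMSO) before 500 ng/mL LPS for 22 h at 37 °C. Secreted IL-6 quantified by HTRF 665/620 ratio; DMSO-normalised duplicates fitted to four-parameter EC50; above 10 μM, % inhibition at 10 μM given.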

[2] = system: Primary human fibroblasts derived from IPF patients (LL29 cells) treated with TGF-β1; assay: Inhibition of the fibrotic process: αSMA staining in TGF-β1-treated primary human fibroblasts from IPF patients (LL29 cells); conditions: Fibroblast, 96 h, % αSMA-positive LL29 cells, TGF-β1 20 ng/mL, 4 days
In short: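 LL29 IPF-patient fibroblasts in 1% FBS stimulated with TGF-β1 (20 ng/mL) and compound (10 μM–1.87 nM, 0.1% DMSO) for 4 days at 37 °C. SYTOX-positive cells excluded; % αSMA-positive cells imaged, normalized to TGF-β1/DMSO wells; EC50 by nonlinear regression, else % inhibition at 10 μM.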

Structure (SMILES) | EC50 [1] [µM] | EC50 (SW480 colon cancer cells) [µM] | EC50 (IL-6) [µM] | EC50 [2] [µM]
CN(C)CCNc1cc(F)cc(-c2cccc3[nH]c(-c4n[nH]c5ccc(-c6cncc(NC(=O)Cc7ccccc7)c6)cc45)cc23)c1 [Compound 458, N-(5-(3-(4-(3-((2-(Dimethylamino)ethyl)amino)-5-fluorophenyl)-1H-indol-2-yl)-1H-indazol-5-yl)pyridin-3-yl)-2-phenylacetamide] | 0.422 | 0.767 | 0.354 | 1.01
CN(C)CCNc1cc(F)cc(-c2cccc3[nH]c(-c4n[nH]c5ccc(-c6cncc(NC(=O)c7ccccc7)c6)cc45)cc23)c1 [Compound 459, N-(5-(3-(4-(3-((2-(Dimethylamino)ethyl)amino)-5-fluorophenyl)-1H-indol-2-yl)-1H-indazol-5-yl)pyridin-3-yl)benzamide] | 0.067 | 0.212 | 0.109 | 0.077
CCCC(=O)Nc1cncc(-c2ccc3[nH]nc(-c4cc5c(-c6cc(F)cc(NCCN(C)C)c6)cccc5[nH]4)c3c2)c1 [Compound 465, N-(5-(3-(4-(3-((2-(Dimethylamino)ethyl)amino)-5-fluorophenyl)-1H-indol-2-yl)-1H-indazol-5-yl)pyridin-3-yl)butyramide] | 0.138 | 0.31 | 0.876 | 0.224
CN(C)CCNc1cc(F)cc(-c2cccc3[nH]c(-c4n[nH]c5ccc(-c6cncc(NC(=O)C7CC7)c6)cc45)cc23)c1 [Compound 468, N-(5-(3-(4-(3-((2-(Dimethylamino)ethyl)amino)-5-fluorophenyl)-1H-indol-2-yl)-1H-indazol-5-yl)pyridin-3-yl)cyclopropanecarboxamide] | 0.021 | 0.075 | 0.009 | 0.174
CN(C)CCNc1cc(F)cc(-c2cccc3[nH]c(-c4n[nH]c5ccc(-c6cncc(NC(=O)C7CCC7)c6)cc45)cc23)c1 [Compound 469, N-(5-(3-(4-(3-((2-(Dimethylamino)ethyl)amino)-5-fluorophenyl)-1H-indol-2-yl)-1H-indazol-5-yl)pyridin-3-yl)cyclobutanecarboxamide] | 0.195 | 0.287 | 0.027 | 0.189
CN(C)CCNc1cc(F)cc(-c2cccc3[nH]c(-c4n[nH]c5ccc(-c6cncc(NC(=O)C7CCCC7)c6)cc45)cc23)c1 [Compound 470, N-(5-(3-(4-(3-((2-(Dimethylamino)ethyl)amino)-5-fluorophenyl)-1H-indol-2-yl)-1H-indazol-5-yl)pyridin-3-yl)cyclopentanecarboxamide] | 0.04 | 0.166 | 0.054 | > 10
CN(C)CCNc1cc(F)cc(-c2cccc3[nH]c(-c4n[nH]c5ccc(-c6cncc(NC(=O)C7CCCCC7)c6)cc45)cc23)c1 [Compound 471, N-(5-(3-(4-(3-((2-(Dimethylamino)ethyl)amino)-5-fluorophenyl)-1H-indol-2-yl)-1H-indazol-5-yl)pyridin-3-yl)cyclohexanecarboxamide] | 0.689 | 1.38 | 0.731 | 1.42
CCC(=O)Nc1cncc(-c2ccc3[nH]nc(-c4cc5c(-c6cc(F)cc(CNS(C)(=O)=O)c6)cccc5[nH]4)c3c2)c1 [Compound 477, N-(5-(3-(4-(3-Fluoro-5-(methylsulfonamidomethyl)phenyl)-1H-indol-2-yl)-1H-indazol-5-yl)pyridin-3-yl)propionamide] | 0.135 | 0.817 | 0.595 | 0.224
CS(=O)(=O)NCc1cc(F)cc(-c2cccc3[nH]c(-c4n[nH]c5ccc(-c6cncc(N)c6)cc45)cc23)c1 [Compound 479, N-(3-(2-(5-(5-Aminopyridin-3-yl)-1H-indazol-3-yl)-1H-indol-4-yl)-5-fluorobenzyl)methanesulfonamide] | 0.08 | 0.677 | 0.169 | 0.134
